Measurements published in ChEMBL document CHEMBL6127078, “Discovery of 7-(1-methyl-1H-pyrazol-4-yl)-1,6-naphthyridine derivatives as potent inhibitors of rearranged during transfection (RET) and RET solvent-front mutants for overcoming selpercatinib resistance” (Eur J Med Chem, 2024).

Legend:
[1] = AUC (0 to infinity) in male Sprague-Dawley rat at 1 mg/kg, iv; format: ADME, organism-based; conditions: in vivo
[2] = AUC (0 to infinity) in male Sprague-Dawley rat at 5 mg/kg, IG; format: ADME, organism-based; conditions: in vivo, po
[3] = biological target: Proto-oncogene tyrosine-protein kinase receptor Ret (Homo sapiens, UniProt P07949, G810S); assay: Inhibition of RET G810S mutant (unknown origin) by FRET-based ZLyte kinase assay
[4] = biological target: Proto-oncogene tyrosine-protein kinase receptor Ret (Homo sapiens, UniProt P07949, G810C); assay: Inhibition of RET G810C mutant (unknown origin) by FRET-based ZLyte kinase assay
[5] = Cmax in male Sprague-Dawley rat at 5 mg/kg, IG; format: ADME, organism-based; conditions: in vivo, po
[6] = biological target: Proto-oncogene tyrosine-protein kinase receptor Ret (Homo sapiens, UniProt P07949); assay: Inhibition of wild type RET (unknown origin) by FRET-based ZLyte kinase assay
[7] = biological target: Tyrosine-protein kinase JAK2 (Homo sapiens, UniProt O60674); assay: Inhibition of JAK2 (unknown origin) by FRET-based Z-Lyte kinase assay
[8] = biological target: Proto-oncogene tyrosine-protein kinase receptor Ret (Homo sapiens, UniProt P07949, V804M); assay: Inhibition of RET V804M mutant (unknown origin) by FRET-based ZLyte kinase assay
[9] = Oral bioavailability in male Sprague-Dawley rat at 5 mg/kg, IG; format: ADME, organism-based; conditions: in vivo
[10] = biological target: Proto-oncogene tyrosine-protein kinase receptor Ret (Homo sapiens, UniProt P07949, G810R); assay: Inhibition of RET G810R mutant (unknown origin) by FRET-based ZLyte kinase assay
[11] = biological target: Proto-oncogene tyrosine-protein kinase receptor Ret (Homo sapiens, UniProt P07949, V804L); assay: Inhibition of RET V804L mutant (unknown origin) by FRET-based ZLyte kinase assay
[12] = biological target: Vascular endothelial growth factor receptor 3 (Homo sapiens, UniProt P35916); assay: Inhibition of FLT4 (unknown origin) by FRET-based Z-Lyte kinase assay
[13] = Half life in male Sprague-Dawley rat at 5 mg/kg, IG; format: ADME, organism-based; conditions: in vivo, po
[14] = biological target: Proto-oncogene tyrosine-protein kinase receptor Ret (Homo sapiens, UniProt P07949, M918T); assay: Inhibition of RET M918T mutant (unknown origin) by FRET-based ZLyte kinase assay
[15] = biological target: Vascular endothelial growth factor receptor 2 (Homo sapiens, UniProt P35968); assay: Inhibition of KDR (unknown origin) by FRET-based Z-Lyte kinase assay
[16] = biological target: Vascular endothelial growth factor receptor 1 (Homo sapiens, UniProt P17948); assay: Inhibition of FLT1 (unknown origin) by FRET-based Z-Lyte kinase assay
[17] = Toxicity in mouse allografted with mouse BaF3 cells harbouring KIF5B-RET G810R mutant assessed as drug tolerance at 10 to 30 mg/kg BID measured upto 14 days; format: organism-based; conditions: in vivo, 336 h, dose 10-30 mg/kg, time < 14 day
[18] = biological target: Fibroblast growth factor receptor 4 (Homo sapiens, UniProt P22455); assay: Inhibition of FGFR4 (unknown origin) by FRET-based Z-Lyte kinase assay
[19] = Toxicity in mouse allografted with mouse BaF3 cells harbouring KIF5B-RET G810R mutant assessed as mortality at 10 to 30 mg/kg BID measured upto 14 days; format: organism-based; conditions: in vivo, 336 h, dose 10-30 mg/kg, time < 14 day
[20] = Toxicity in mouse allografted with mouse BaF3 cells harbouring KIF5B-RET G810R mutant assessed as effect on body weight loss at 10 to 30 mg/kg BID measured upto 14 days; format: organism-based; conditions: in vivo, 336 h, dose 10-30 mg/kg, time < 14 day
[21] = Tmax in male Sprague-Dawley rat at 5 mg/kg, IG; format: ADME, organism-based; conditions: in vivo, po
[22] = biological target: Epithelial discoidin domain-containing receptor 1 (Homo sapiens, UniProt Q08345); assay: Inhibition of DDR1 (unknown origin) by FRET-based Z-Lyte kinase assay
[23] = Toxicity in mouse allografted with mouse BaF3 cells harbouring KIF5B-RET-wild type assessed as effect on body weight loss at 10 mg/kg BID measured upto 14 days; format: organism-based; conditions: in vivo, 336 h, time < 14 day
[24] = Clearance in male Sprague-Dawley rat at 1 mg/kg, iv; format: ADME, organism-based; conditions: in vivo
[25] = Cmax in male Sprague-Dawley rat at 1 mg/kg, iv; format: ADME, organism-based; conditions: in vivo
[26] = Toxicity in mouse allografted with mouse BaF3 cells harbouring KIF5B-RET-wild type assessed as drug tolerance at 10 mg/kg BID measured upto 14 days; format: organism-based; conditions: in vivo, 336 h, time < 14 day
[27] = Toxicity in mouse allografted with mouse BaF3 cells harbouring KIF5B-RET-wild type assessed as mortality at 10 mg/kg BID measured upto 14 days; format: organism-based; conditions: in vivo, 336 h, time < 14 day
[28] = Half life in male Sprague-Dawley rat at 1 mg/kg, iv; format: ADME, organism-based; conditions: in vivo
[29] = biological target: T1, Receptor-type tyrosine-protein kinase FLT3 (Homo sapiens, UniProt P36888); assay: Inhibition of FLT3 (unknown origin) by FRET-based Z-Lyte kinase assay
T1 sequence (P36888 whole entry): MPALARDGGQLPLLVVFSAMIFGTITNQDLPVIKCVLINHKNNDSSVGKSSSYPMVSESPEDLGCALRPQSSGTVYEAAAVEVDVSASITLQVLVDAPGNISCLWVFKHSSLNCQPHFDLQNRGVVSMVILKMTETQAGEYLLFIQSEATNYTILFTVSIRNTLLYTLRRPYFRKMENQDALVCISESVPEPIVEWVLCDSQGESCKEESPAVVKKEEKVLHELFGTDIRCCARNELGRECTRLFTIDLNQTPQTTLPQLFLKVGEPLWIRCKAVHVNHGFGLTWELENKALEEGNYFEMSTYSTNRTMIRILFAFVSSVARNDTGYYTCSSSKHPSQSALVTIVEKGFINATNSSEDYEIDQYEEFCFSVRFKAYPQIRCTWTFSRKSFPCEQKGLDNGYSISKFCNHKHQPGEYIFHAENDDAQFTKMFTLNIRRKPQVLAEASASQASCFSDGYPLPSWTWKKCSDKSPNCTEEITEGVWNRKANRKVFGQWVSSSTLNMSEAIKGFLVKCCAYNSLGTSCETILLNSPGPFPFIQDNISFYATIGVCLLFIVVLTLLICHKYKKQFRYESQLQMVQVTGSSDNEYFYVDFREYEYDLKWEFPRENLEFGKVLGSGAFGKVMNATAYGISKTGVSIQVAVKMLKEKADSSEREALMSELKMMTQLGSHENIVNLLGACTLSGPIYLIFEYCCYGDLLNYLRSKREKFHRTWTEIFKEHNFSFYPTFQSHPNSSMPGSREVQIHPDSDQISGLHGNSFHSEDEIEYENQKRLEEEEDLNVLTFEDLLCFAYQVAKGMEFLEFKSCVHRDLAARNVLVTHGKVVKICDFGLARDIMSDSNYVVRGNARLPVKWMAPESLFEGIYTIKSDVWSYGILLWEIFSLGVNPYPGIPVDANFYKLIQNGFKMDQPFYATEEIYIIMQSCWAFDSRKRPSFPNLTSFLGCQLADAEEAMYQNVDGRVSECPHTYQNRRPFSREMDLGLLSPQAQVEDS

[30] = Apparent volume of distribution in male Sprague-Dawley rat at 1 mg/kg, iv; format: ADME, organism-based; conditions: in vivo, read-out: Vz
[31] = Apparent volume of distribution in male Sprague-Dawley rat at 5 mg/kg, IG; format: ADME, organism-based; conditions: in vivo, po
[32] = Clearance in male Sprague-Dawley rat at 5 mg/kg, IG; format: ADME, organism-based; conditions: in vivo, po

Chain of Vascular endothelial growth factor receptor 1 (P17948 whole entry): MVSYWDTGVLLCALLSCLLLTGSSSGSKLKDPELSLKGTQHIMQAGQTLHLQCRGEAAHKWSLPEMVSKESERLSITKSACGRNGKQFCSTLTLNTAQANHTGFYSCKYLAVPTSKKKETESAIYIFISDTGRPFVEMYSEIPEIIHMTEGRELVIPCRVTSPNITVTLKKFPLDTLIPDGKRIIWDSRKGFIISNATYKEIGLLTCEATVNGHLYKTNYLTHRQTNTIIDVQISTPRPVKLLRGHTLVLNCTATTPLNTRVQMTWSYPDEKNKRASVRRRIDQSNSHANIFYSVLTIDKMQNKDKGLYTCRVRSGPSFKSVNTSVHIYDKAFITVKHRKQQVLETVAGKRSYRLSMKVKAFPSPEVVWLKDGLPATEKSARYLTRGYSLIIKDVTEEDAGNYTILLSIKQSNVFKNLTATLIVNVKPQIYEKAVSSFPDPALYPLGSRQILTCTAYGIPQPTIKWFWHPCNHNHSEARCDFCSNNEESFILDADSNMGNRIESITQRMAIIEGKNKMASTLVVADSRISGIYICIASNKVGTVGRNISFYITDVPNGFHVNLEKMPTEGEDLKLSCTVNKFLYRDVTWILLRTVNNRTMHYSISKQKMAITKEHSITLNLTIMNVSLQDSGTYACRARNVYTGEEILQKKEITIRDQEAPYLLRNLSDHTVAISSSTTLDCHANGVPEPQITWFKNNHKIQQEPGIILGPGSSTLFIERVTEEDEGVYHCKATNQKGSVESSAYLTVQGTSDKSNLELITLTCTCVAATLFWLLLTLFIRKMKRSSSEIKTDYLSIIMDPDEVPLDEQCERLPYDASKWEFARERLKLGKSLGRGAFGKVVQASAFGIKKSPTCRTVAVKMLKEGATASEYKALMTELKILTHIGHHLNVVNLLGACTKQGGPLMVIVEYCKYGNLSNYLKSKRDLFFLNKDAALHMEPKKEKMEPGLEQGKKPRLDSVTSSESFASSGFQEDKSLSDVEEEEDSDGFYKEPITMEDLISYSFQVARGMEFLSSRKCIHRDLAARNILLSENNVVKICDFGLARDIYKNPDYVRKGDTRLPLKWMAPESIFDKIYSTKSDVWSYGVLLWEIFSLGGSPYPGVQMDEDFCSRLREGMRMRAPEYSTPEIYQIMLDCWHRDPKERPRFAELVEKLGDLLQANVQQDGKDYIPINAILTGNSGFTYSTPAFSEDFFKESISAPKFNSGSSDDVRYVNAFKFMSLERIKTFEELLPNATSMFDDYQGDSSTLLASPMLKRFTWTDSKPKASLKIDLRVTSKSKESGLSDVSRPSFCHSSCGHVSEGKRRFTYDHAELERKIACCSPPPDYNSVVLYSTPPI
Chain of Epithelial discoidin domain-containing receptor 1 (Q08345 whole entry, the tested form may be a part): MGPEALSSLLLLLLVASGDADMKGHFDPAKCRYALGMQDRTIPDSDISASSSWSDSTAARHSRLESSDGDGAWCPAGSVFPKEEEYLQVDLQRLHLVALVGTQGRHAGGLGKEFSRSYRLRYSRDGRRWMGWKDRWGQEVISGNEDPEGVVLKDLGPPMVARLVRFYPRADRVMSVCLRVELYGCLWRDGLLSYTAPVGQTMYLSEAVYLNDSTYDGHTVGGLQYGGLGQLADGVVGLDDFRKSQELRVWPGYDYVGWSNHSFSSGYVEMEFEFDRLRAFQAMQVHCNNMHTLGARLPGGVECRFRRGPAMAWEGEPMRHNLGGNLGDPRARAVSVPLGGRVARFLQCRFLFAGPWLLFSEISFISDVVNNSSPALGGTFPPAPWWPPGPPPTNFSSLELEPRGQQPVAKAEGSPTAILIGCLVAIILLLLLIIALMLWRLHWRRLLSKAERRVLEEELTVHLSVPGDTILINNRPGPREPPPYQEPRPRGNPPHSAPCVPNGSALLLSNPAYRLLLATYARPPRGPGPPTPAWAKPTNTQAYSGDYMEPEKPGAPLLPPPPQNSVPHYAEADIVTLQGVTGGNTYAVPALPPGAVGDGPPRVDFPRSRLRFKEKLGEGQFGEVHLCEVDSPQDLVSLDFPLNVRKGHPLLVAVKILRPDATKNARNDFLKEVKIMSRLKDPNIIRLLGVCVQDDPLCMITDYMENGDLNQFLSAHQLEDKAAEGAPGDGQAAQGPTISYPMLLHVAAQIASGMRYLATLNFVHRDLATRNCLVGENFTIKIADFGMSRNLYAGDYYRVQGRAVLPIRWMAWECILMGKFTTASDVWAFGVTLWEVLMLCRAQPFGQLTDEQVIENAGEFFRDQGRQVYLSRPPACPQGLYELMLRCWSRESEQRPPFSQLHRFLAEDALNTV
Chain of Proto-oncogene tyrosine-protein kinase receptor Ret (Homo sapiens, UniProt P07949) (P07949 whole entry): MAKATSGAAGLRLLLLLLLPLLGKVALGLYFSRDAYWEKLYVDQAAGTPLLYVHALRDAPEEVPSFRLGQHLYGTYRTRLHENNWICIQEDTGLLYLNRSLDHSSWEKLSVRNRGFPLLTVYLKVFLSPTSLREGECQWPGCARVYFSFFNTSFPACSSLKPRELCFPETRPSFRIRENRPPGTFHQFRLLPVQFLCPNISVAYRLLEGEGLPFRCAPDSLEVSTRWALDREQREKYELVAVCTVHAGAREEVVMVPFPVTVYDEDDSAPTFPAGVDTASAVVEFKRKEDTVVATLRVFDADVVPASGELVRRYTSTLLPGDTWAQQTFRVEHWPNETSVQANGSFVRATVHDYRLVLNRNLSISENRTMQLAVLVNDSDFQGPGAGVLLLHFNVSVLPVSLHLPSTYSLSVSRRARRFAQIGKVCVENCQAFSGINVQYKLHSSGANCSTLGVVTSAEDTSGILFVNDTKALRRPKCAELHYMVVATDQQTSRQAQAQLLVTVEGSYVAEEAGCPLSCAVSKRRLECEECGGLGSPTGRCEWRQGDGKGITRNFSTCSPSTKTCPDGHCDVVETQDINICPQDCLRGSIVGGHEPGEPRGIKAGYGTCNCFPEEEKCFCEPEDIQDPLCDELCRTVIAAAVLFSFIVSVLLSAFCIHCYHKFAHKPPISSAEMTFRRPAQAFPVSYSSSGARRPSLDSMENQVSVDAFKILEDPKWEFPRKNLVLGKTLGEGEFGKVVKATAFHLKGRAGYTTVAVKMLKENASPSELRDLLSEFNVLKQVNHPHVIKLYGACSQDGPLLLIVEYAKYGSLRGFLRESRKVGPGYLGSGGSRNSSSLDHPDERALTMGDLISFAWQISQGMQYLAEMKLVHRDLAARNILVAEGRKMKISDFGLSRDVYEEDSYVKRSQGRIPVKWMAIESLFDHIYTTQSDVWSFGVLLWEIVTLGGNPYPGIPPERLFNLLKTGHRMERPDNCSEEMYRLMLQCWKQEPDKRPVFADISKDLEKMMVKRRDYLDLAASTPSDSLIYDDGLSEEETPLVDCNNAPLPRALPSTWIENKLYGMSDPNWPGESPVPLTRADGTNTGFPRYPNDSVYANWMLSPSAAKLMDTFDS
Chain of Proto-oncogene tyrosine-protein kinase receptor Ret (Homo sapiens, UniProt P07949, V804M) (P07949 29-1114 V804M limits assumed): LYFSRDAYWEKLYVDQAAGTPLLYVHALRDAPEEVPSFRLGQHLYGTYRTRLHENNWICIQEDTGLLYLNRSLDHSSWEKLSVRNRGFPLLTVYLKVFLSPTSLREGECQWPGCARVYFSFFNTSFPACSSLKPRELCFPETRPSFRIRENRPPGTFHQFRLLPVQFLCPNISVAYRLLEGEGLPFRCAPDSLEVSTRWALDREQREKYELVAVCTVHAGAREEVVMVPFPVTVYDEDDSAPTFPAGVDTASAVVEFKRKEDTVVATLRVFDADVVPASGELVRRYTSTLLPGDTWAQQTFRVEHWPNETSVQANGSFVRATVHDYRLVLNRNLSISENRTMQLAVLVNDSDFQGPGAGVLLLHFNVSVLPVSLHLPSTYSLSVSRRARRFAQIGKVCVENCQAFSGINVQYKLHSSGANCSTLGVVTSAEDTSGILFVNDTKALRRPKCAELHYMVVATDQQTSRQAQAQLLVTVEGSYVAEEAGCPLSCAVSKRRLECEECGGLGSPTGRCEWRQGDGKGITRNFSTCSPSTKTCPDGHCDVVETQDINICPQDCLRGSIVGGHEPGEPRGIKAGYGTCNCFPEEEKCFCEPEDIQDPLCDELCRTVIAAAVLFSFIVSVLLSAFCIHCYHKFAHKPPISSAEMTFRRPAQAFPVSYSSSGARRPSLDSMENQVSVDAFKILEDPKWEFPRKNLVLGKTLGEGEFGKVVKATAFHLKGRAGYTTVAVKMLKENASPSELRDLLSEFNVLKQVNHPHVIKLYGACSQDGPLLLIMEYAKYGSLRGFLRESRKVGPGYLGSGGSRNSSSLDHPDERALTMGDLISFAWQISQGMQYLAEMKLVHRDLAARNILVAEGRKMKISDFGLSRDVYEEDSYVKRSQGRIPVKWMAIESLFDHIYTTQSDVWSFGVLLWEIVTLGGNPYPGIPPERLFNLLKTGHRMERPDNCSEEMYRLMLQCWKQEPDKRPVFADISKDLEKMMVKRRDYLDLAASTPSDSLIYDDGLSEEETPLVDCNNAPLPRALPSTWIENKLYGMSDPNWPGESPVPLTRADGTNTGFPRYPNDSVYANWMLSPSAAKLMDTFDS

COc1ccc(CN2C3CC2CN(c2ccc(-c4nc(-c5cnn(C)c5)cc5ncccc45)cn2)C3)cc1C#N
AUC(0-inf) [1]: 451 ng·h/mL
AUC(0-inf) [2]: 686 ng·h/mL
IC50 [3]: 5.7 nM
IC50 [4]: 7.1 nM
Cmax [5]: 140 ng/mL
IC50 [6]: 3.2 nM
IC50 [7]: 2650 nM
IC50 [8]: 1.8 nM
bioavailability [9]: 30.4%
IC50 [10]: 8.3 nM
IC50 [11]: 0.2 nM
IC50 [12]: 5.1 nM
half-life [13]: 276 min
IC50 [14]: 0.4 nM
IC50 [15]: 27.3 nM
IC50 [16]: 34.9 nM
Activity [17]: Non-Toxic
IC50 [18]: 113 nM
Activity [19]: Non-Toxic
Activity [20]: Non-Toxic
Tmax [21]: 1.6 h
IC50 [22]: 334 nM
Activity [23]: Non-Toxic
clearance [24]: 40 mL/min/kg
Cmax [25]: 265 ng/mL
Activity [26]: Non-Toxic
Activity [27]: Non-Toxic
half-life [28]: 300 min
IC50 [29]: 52.7 nM
Vd [30]: 17.2 L/kg
Vz [31]: 48.1 L/kg
CL/F [32]: 122 mL/min/kg
